The text below walks through data of patent US9428478B2, “Piperazine derivatives, compositions, and uses related thereto” (Emory University, priority 2011, dated 2016).

Data set [1] deals with T1, Nox2 (Homo sapiens (Human), UniProt P04839). Nature of the data set: Nox2 activity assay for primary screening (cell free, human neutrophil plasma membranes, LO12 luminescence). The data set is classed as biochemical. The method, then: Nox2 activity assay for primary screening: Plasma membranes were prepared from human neutrophils, which express large amounts of Nox2, stored at −80 C until use. See Curnutte et al., J. Biol. Chem. 1987, 262, 6450-6452, hereby incorporated by reference. Membranes are mixed with recombinant, purified cytosolic regulatory proteins (p67Np47N chimera, and a constitutively active mutant of Rac, Rac1(Q61)) and FAD, along with varying concentrations of compound, and LO12, which emits light when it reacts with ROS. The reaction is initiated by addition of NADPH and SDS (an artificial activator of Nox2).
Target sequence in this assay (P04839 2-570): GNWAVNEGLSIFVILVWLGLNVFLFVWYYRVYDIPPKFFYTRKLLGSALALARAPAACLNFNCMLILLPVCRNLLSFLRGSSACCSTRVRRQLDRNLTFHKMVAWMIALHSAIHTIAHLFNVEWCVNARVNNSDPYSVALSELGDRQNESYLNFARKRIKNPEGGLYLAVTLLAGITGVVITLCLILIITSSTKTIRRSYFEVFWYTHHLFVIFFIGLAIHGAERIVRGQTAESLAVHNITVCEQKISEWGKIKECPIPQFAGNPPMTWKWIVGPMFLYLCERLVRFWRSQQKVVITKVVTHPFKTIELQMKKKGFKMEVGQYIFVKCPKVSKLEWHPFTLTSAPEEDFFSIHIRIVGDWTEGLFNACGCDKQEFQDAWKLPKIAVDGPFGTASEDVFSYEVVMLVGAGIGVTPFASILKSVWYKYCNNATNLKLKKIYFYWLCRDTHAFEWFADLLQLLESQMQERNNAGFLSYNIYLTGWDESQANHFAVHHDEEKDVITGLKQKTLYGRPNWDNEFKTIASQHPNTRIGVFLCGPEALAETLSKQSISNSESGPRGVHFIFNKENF

The target in data set [2] is T1, Nox2. Nature of the data set: Nox2 assay in human neutrophils (PMN), LO12 luminescence. Format: cell-based. To be noted: Table 3, human neutrophils; read-out: Nox2 (PMN). The method, then: Nox2 assay in human neutrophils: Human neutrophils were obtained from healthy volunteers (REF). LO12 luminescence was quantified as above. Nox4 assay using stably transfected HEK cell: HEK cells stably transfected with human Nox4 were incubated with varying concentrations of compound along with LO12.
Target sequence in this assay (P04839 whole entry, looked up): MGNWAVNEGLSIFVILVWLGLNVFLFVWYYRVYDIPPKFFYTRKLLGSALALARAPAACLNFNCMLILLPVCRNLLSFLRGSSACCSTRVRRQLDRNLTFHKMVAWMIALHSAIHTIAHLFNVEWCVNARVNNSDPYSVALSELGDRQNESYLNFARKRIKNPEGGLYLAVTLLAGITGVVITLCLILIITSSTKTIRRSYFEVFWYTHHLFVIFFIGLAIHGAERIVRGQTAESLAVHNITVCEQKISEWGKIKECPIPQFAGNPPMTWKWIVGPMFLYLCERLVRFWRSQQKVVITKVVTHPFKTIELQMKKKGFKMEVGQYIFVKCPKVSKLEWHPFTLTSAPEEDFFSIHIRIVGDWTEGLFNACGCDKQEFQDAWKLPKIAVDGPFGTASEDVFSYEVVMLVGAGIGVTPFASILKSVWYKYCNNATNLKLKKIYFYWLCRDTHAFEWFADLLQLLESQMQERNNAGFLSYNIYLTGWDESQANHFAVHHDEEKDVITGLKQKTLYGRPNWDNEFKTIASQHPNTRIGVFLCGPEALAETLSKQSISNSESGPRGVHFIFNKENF
Target sequence in this assay (P13498 whole entry partner, looked up): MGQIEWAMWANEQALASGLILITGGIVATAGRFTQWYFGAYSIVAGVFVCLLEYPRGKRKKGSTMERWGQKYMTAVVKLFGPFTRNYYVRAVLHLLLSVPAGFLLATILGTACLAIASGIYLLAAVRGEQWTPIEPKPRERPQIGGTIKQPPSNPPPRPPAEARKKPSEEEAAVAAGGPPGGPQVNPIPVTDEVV

Data set [3] deals with xanthine oxidase (Homo sapiens (Human), UniProt P47989). Kind of data set: Assay control: xanthine oxidase (XO) replaces Nox2 as the source of ROS, LO12 luminescence. Format: biochemical. To be noted: Table 2, xanthine oxidase control. The method, then:
Assay controls. To rule out interference with either Nox2 or Nox4 luminescence assays, two approaches are used. In one, xanthine oxidase replaces the Nox2 enzymatic system as the source of ROS in the Nox2/LO12 assay. Xanthine is added to initiate the reaction and LO12 luminescence is recorded. In the other, exogenous H2O2 is supplied in place of the Nox4 expressing H2O2-generating cells and luminescence is recorded.

Data set [4] concerns the target Nox1 (Homo sapiens (Human), UniProt Q9Y5S8). Nature of the data set: Nox1 inhibition. Format: biochemical. The settings on record: Table 3.
A short description of data set [5]: Solubility. The data set is classed as physicochemical.
Data set [6] can be described thus: Stability in liver S9-fractions, mouse. Format: in vitro ADME. To be noted: read-out: Stability in liver S9-fractions (t ½) Mouse (converted).
Data set [7] in a line: Stability in liver S9-fractions, dog. The data set is classed as in vitro ADME. To be noted: read-out: Stability in liver S9-fractions (t ½) Dog (converted).
Data set [8] can be described thus: Stability in liver S9-fractions, human. Format: in vitro ADME. The settings on record: read-out: Stability in liver S9-fractions (t ½) Human (converted).
Data set [9] addresses Nox5 (Homo sapiens (Human), UniProt Q96PH1). Kind of data set: Nox5 inhibition. The data set is classed as biochemical. The settings on record: Table 3.
Where [10] appears, read: Table 3, read-out: Nox2 (Cell Free).

pIC50: −log10 of the molar value. Values after ≈ are worked out from the molar mass of the structure shown.

Chain of Nox1 (Q9Y5S8 whole entry, species assumed): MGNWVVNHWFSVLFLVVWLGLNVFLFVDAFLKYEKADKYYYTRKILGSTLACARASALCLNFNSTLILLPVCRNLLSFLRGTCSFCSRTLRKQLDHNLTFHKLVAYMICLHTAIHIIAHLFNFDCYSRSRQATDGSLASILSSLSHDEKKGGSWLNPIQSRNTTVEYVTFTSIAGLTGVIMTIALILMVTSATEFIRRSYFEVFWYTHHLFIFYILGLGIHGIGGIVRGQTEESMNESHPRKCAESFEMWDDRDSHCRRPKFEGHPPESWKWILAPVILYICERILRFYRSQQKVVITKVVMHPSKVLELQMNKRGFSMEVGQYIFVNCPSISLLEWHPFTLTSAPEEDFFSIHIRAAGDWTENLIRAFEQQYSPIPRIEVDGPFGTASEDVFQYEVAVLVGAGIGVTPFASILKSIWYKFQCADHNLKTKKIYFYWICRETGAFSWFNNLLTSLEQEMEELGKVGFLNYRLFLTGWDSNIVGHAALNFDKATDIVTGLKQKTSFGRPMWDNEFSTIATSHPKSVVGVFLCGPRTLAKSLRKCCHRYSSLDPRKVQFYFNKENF
Chain of Nox1 (P13498 2-195 partner, species assumed): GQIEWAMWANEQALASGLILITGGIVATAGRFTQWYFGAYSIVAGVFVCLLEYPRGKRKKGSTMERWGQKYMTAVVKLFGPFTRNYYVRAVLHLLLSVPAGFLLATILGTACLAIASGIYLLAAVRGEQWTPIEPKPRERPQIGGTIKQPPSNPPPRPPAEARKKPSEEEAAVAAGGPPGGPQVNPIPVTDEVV
Chain of Nox5 (Q96PH1 whole entry, species assumed): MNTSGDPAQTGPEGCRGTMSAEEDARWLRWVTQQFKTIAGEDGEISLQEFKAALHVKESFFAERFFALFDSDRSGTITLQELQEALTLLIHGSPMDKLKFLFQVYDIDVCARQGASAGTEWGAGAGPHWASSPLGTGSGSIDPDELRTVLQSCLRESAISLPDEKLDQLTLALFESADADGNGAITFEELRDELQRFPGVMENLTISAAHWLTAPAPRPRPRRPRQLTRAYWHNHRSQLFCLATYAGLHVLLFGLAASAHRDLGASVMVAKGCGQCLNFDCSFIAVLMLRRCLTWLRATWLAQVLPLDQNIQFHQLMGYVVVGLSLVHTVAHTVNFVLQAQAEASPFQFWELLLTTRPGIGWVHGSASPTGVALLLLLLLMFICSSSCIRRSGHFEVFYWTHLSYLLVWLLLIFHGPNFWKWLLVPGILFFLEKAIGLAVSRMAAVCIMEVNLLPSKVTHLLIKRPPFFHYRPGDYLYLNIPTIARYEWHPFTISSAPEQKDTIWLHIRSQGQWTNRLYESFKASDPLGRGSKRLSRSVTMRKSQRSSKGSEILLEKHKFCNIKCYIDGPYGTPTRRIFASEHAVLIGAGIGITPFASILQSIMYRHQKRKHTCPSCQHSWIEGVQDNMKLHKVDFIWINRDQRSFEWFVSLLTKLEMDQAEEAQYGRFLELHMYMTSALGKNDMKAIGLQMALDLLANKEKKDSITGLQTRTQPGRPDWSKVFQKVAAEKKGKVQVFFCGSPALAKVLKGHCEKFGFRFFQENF
Chain of xanthine oxidase (P47989 whole entry, species assumed): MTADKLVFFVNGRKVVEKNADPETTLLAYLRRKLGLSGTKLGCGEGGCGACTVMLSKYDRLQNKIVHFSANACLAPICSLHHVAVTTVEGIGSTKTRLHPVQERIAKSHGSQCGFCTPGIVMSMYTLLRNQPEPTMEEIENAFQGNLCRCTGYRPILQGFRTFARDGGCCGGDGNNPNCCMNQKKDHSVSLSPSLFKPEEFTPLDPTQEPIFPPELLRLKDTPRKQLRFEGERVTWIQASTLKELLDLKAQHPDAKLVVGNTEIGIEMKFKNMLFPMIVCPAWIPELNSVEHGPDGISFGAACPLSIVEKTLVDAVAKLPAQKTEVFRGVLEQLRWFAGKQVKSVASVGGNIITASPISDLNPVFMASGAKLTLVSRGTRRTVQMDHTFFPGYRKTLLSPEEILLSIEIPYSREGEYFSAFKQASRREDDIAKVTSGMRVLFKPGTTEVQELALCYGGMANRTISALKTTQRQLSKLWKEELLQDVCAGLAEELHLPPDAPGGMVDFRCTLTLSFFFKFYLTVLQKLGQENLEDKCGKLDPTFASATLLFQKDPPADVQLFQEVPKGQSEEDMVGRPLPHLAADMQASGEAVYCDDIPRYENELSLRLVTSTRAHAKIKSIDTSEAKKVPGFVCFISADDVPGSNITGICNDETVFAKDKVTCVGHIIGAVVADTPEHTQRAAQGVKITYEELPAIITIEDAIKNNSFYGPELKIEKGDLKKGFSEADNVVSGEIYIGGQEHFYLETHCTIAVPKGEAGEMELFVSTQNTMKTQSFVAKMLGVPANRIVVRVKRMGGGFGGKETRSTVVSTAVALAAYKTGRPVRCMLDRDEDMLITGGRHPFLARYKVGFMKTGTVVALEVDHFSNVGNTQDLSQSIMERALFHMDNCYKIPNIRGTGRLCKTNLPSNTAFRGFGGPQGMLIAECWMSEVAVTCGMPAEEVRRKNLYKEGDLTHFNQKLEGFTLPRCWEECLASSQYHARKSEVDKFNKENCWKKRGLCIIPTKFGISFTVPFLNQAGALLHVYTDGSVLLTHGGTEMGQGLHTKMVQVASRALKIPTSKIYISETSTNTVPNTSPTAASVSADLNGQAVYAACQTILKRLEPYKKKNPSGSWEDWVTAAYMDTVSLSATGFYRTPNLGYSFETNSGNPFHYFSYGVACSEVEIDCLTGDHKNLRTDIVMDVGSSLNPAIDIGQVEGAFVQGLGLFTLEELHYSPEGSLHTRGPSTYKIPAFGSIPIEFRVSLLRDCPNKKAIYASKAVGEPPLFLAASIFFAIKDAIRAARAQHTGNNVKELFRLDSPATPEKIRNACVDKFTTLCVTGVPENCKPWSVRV

In the case of `COc1ccc(N2CCN(C(=O)c3cc4cc(F)ccc4[nH]3)CC2)cc1` [TG6-179-1], the pIC50 in data set [1] (Table 2, read-out: IC50 Nox2) is 5.30.

With `COc1ccc(N2CCN(C(=O)c3cc4cc(OC)ccc4[nH]3)CC2)cc1` [TG6-179-2], in [1] (Table 2, read-out: IC50 Nox2), the pIC50 is 6.30.

Usually solubility stands for how much of the substance goes into solution per volume. A higher solubility goes with a readily soluble substance. Consider `COc1ccc(N2CCN(C(=O)c3nc4cc(F)ccc4[nH]3)CC2)cc1` [TG6-179-3, (5-fluoro-1H-benzo[d]imidazol-2-yl)(4-(4-methoxyphenyl)piperazin-1-yl)methanone], for which the pIC50 in [1] (Table 2, read-out: IC50 Nox2) was 6.15; in [1] (setting [10]), 6.00; in [2] it was 6.40; in [3], below 4.70; in data set [4], 6.22. The compound also yielded a solubility in data set [5] below 25 µM. In addition, the half-life is 5 h in data set [6], 4 h in data set [7] and 1 h in data set [8].

With `COc1ccc(N2CCN(C(=O)c3cc4cc(OC)c(OC)cc4[nH]3)CC2)cc1` [TG6-181], the pIC50 in data set [1] (Table 2, read-out: IC50 Nox2) is 6.10; in [3], below 4.70.

`COc1ccc(N2CCN(C(=O)c3[nH]c4ccc(C(C)=O)cc4c3C)CC2)cc1` [TG6-190]: the pIC50 in [1] (Table 2, read-out: IC50 Nox2) is 6.00.

Consider `COc1ccc(N2CCN(C(=O)c3cnc4ccc(F)cc4c3O)CC2)cc1` [TG6-191], for which the pIC50 in [1] (Table 2, read-out: IC50 Nox2) is 5.82.

In the case of `COc1ccc(N2CCN(C(=O)c3cnc4c(F)cccc4c3O)CC2)cc1` [TG6-192], the “IC50 Nox2” value in data set [1] (Table 2) was “Not active”.

In the case of `COc1ccc(N2CCN(C(=O)c3cc4cc(O)ccc4[nH]3)CC2)cc1` [TG6-199], the pIC50 in data set [1] (Table 2, read-out: IC50 Nox2) is 6.30; in [3] it was above 7.00.

`COc1ccc(N2CCN(C(=O)c3[nH]c4ccc(F)cc4c3C)CC2)cc1` [TG6-200]: the pIC50 in data set [1] (Table 2, read-out: IC50 Nox2) is 6.15.

On to `CCc1ccc2[nH]c(C(=O)N3CCN(c4ccc(OC)cc4)CC3)cc2c1` [TG6-202], for which the “IC50 Nox2” value in data set [1] (Table 2) is recorded as “Not active”. The compound further gave a pIC50 in [3] below 4.70.

The inhibition is the change of the read-out against control, counted positive when it falls. A lower inhibition goes with a weak effect. `COc1ccc(N2CCN(C(=O)c3cc4cc(Br)ccc4[nH]3)CC2)cc1` [TG6-203]: in [1], 0.3 µM produced 30% inhibition.

On to `O=C(c1cc2cc(O)ccc2[nH]1)N1CCN(c2ccc(OC(F)(F)F)cc2)CC1` [TG6-205-2], for which the pIC50 is 5.82 in data set [1] (Table 2, read-out: IC50 Nox2) and 6.70 in data set [3].

As to `O=C(c1nc2cc(F)ccc2[nH]1)N1CCN(c2ccc(OC(F)(F)F)cc2)CC1` [TG6-206], the “IC50 Nox2” value in data set [1] (Table 2) is on record as “Not active”.

In turn, `COc1ccc(N2CCN(C(=O)c3[nH]c4ccc(OC)cc4c3NC(C)=O)CC2)cc1` [TG6-208] had an inhibition at 2 µM in data set [1] of 60%.

For the compound `O=C(c1cc2cc([N+](=O)[O-])ccc2[nH]1)N1CCN(c2ccc(OC(F)(F)F)cc2)CC1` [TG6-209], in data set [1], 2 µM produced 25% inhibition.

In data set [1], `COc1ccc(N2CCN(C(=O)[C@H]3Cc4ccccc4N3)CC2)cc1` [TG6-214] had an inhibition at 2.5 µM of 40%.

In the case of `COc1ccc(N2CCN(C(=O)c3cc4cc(S(C)(=O)=O)ccc4[nH]3)CC2)cc1` [TG6-218], the inhibition at 6 µM in [1] turned out to be 40%.

Regarding `COC(=O)c1ccc2[nH]c(C(=O)N3CCN(c4ccc(OC)cc4)CC3)cc2c1` [TG6-222], the pIC50 in [1] (Table 2, read-out: IC50 Nox2) is 6.52; in data set [3], below 4.70.

In the case of `CNC(=O)c1ccc2[nH]c(C(=O)N3CCN(c4ccc(OC)cc4)CC3)cc2c1` [TG6-223], the pIC50 is 6.30 in [1] (Table 2, read-out: IC50 Nox2) and below 4.70 in [3].

Take `COc1ccc(N2CCN(C(=O)c3cc4ccccc4[nH]3)CC2)cc1` [TG6-225]: the pIC50 is 6.30 in data set [1] (Table 2, read-out: IC50 Nox2); 6.40 in [1] (setting [10]); 6.70 in [2]; below 4.70 in data set [3]; 6.30 in data set [4]. For the same compound, the solubility in data set [5] was below 25 µM. For the same compound, the values for the half-life in [6], in [7] and in data set [8] were 5 h, 2.5 h and 4.2 h, respectively.

`COc1ccc(N2CCN(C(=O)c3cc4cc(C(N)=O)ccc4[nH]3)CC2)cc1` [TG6-227]: the pIC50 in data set [1] (Table 2, read-out: IC50 Nox2) was 6.15; in data set [1] (setting [10]), 6.22; in [2], 7.00; in data set [3], below 4.70; in data set [4], 6.52. The same compound had a solubility in [5] of 190 µM (≈ 71.9 µg/mL). Besides, the half-life in data set [6] is 6 h; in [7], 4.5 h; in data set [8] it was 2 h.

For the compound `COc1ccc(N2CCN(C(=O)c3nc4cc(OC)ccc4[nH]3)CC2)cc1` [TG6-228], the pIC50 is 6.00 in [1] (Table 2, read-out: IC50 Nox2) and below 4.70 in data set [3].

In the case of `COC(=O)C1CN(c2ccc(OC)cc2)CCN1C(=O)c1nc2cc(F)ccc2[nH]1` (centres unmarked) [TG6-235], the pIC50 in data set [1] (Table 2, read-out: IC50 Nox2) was 6.00; in [3] it was below 4.70.

With `COc1ccc(N2CCN(C(=O)c3cc4cc(C(=O)O)ccc4[nH]3)CC2)cc1` [TG6-236], the pIC50 is 6.30 in data set [1] (Table 2, read-out: IC50 Nox2) and below 4.70 in data set [3].

With `CCOc1ccc(N2CCN(C(=O)c3cc4cc(C(C)=O)ccc4[nH]3)CC2)cc1` [TG6-238], the pIC50 in data set [1] (Table 2, read-out: IC50 Nox2) is 6.10; in data set [3], at most 4.70.

As to `COc1ccc(N2CCN(C(=O)c3cnc4cc(C(C)=O)ccc4c3O)CC2)cc1` [TG6-239], the pIC50 is 6.00 in data set [1] (Table 2, read-out: IC50 Nox2) and at most 4.70 in data set [3].

For `CCOc1ccc(N2CCN(C(=O)c3nc4cc(F)ccc4[nH]3)CC2)cc1` [TG6-242], the pIC50 in data set [1] (Table 2, read-out: IC50 Nox2) was 6.10.

In the case of `CC(C)Oc1ccc(N2CCN(C(=O)c3nc4cc(C(N)=O)ccc4[nH]3)CC2)cc1` [TG6-251-1], the pIC50 in data set [1] (Table 2, read-out: IC50 Nox2) was 6.00; in [3], at most 4.70.

Consider `CC(=O)c1ccc2[nH]c(C(=O)N3CCN(c4ccc(OC(C)C)cc4)CC3)cc2c1` [TG6-251-2], for which, in data set [1] (Table 2, read-out: IC50 Nox2), the pIC50 is 6.00.

For `COc1ccc(N2CCN(C(=O)c3cc4cc(C(C)=O)ccc4[nH]3)CC2)cc1F` [TG6-252], in data set [1] (Table 2, read-out: IC50 Nox2), the pIC50 was 5.52.

As to `COc1ccc(N2CCN(C(=O)c3cc4cc(C(N)=O)ccc4[nH]3)CC2)cc1F` [TG6-254-1], the pIC50 in data set [1] (Table 2, read-out: IC50 Nox2) is 5.70.

`CNC(=O)c1ccc2[nH]c(C(=O)N3CCN(c4ccc(OC)c(F)c4)CC3)cc2c1` [TG6-254-2]: the pIC50 in data set [1] (Table 2, read-out: IC50 Nox2) was 5.00.

`CCN(CC)CCNCc1c(C(=O)N2CCN(c3ccc(OC)cc3)CC2)[nH]c2ccc(F)cc12` [TG6-298, (3-(((2-(diethylamino)ethyl)amino)methyl)-5-fluoro-1H-indol-2-yl)(4-(4-methoxyphenyl)piperazin-1-yl)methanone]: the pIC50 is 6.52 in data set [1] (setting [10]), 6.70 in data set [2] and 6.05 in data set [4]. In data set [5], the concentration in solution (solubility) was 150 µM (≈ 72.2 µg/mL).

Turning to `COc1ccc(N2CCN(C(=O)c3[nH]c4ccc(F)cc4c3CN3CCOCC3)CC2)cc1.Cl` [TG7-31, (5-fluoro-3-(morpholinomethyl)-1H-indol-2-yl)(4-(4-methoxyphenyl)piperazin-1-yl)methanone], the pIC50 in [1] (setting [10]) was 6.10; in data set [2], 6.70; in data set [4], 6.22; in data set [9], 5.82. Moreover, the concentration in solution in [5] (solubility) was 276 µM.

Take `COc1ccc(N2CCN(C(=O)c3[nH]c4ccc(F)cc4c3CNC3CCN(C)CC3)CC2)cc1` [TG7-32, (5-fluoro-3-(((1-methylpiperidin-4-yl)amino)methyl)-1H-indol-2-yl)(4-(4-methoxyphenyl)piperazin-1-yl)methanone]: the pIC50 in data set [1] (setting [10]) is 6.15; in data set [2], 6.70; in data set [4] it was 6.30; in data set [9], 6.22. This compound also showed a solubility in [5] of 250 µM (≈ 120 µg/mL).

For the compound `CCN1CCN(Cc2c(C(=O)N3CCN(c4ccc(OC)cc4)CC3)[nH]c3ccc(F)cc23)CC1` [TG7-33, (3-((4-ethylpiperazin-1-yl)methyl)-5-fluoro-1H-indol-2-yl)(4-(4-methoxyphenyl)piperazin-1-yl)methanone], the pIC50 is 6.10 in [1] (setting [10]), 6.15 in data set [2], 6.40 in data set [4] and 6.10 in [9]. The compound also showed a solubility in data set [5] of 250 µM (≈ 120 µg/mL).

As for `CCN(CC)Cc1c(C(=O)N2CCN(c3ccc(OC)cc3)CC2)[nH]c2ccc(F)cc12.Cl` [TG7-34, (3-((diethylamino)methyl)-5-fluoro-1H-indol-2-yl)(4-(4-methoxyphenyl)piperazin-1-yl)methanone], the pIC50 in [1] (setting [10]) is 6.15; in data set [2] it was 6.30; in [4], 6.22; in [9] it was 6.22. Also, in [5], the solubility turned out to be 270 µM.
